Results published in PubChem BioAssay (NCI).
Values joined by “and” are separate entries in the source; they are usually repeats but may differ in a detail not shown here. Equal entries are not always repeated.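 Each compound was tested at five concentrations against cells in 96-well plates for 48 hours. The concentration for 50% growth inhibition is given as GI50. The concentration for full growth arrest is given as TGI.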

Legend:
Assay in all cases: inhibition of tumour cell growth, NCI panel, 48 h
A549 NSCLC = system: A549 NSCLC
ACHN renal = system: ACHN renal
K-562 leukemia = system: K-562 leukemia
LOX IMVI melanoma = system: LOX IMVI melanoma
MCF7 breast = system: MCF7 breast
MDA-N = system: MDA-N
NCI-H522 lung = system: NCI-H522 lung
OVCAR-3 ovarian = system: OVCAR-3 ovarian
OVCAR-5 ovarian = system: OVCAR-5 ovarian
SF-268 CNS = system: SF-268 CNS
SK-MEL-28 melanoma = system: SK-MEL-28 melanoma
SNB-19 CNS = system: SNB-19 CNS
SNB-75 CNS = system: SNB-75 CNS
SW-620 colon = system: SW-620 colon
T-47D breast = system: T-47D breast
UACC-62 melanoma = system: UACC-62 melanoma
UO-31 renal = system: UO-31 renal

| SMILES | TGI (A549 NSCLC) [µM] | TGI (ACHN renal) [µM] | TGI (K-562 leukemia) [µM] | TGI (LOX IMVI melanoma) [µM] | TGI (MCF7 breast) [µM] | TGI (MDA-N) | TGI (NCI-H522 lung) [µM] | TGI (OVCAR-3 ovarian) [µM] | TGI (OVCAR-5 ovarian) [µM] | TGI (SF-268 CNS) [µM] | TGI (SK-MEL-28 melanoma) [µM] | TGI (SNB-19 CNS) [µM] | TGI (SNB-75 CNS) [µM] | TGI (SW-620 colon) [µM] | TGI (T-47D breast) [µM] | TGI (UACC-62 melanoma) [µM] | TGI (UO-31 renal) [µM] | GI50 (K-562 leukemia) [µM] | GI50 (MDA-N) |
| --- | --- | --- | --- | --- | --- | --- | --- | --- | --- | --- | --- | --- | --- | --- | --- | --- | --- | --- | --- |
| O=C1C=CC(=O)c2c(O)c(Nc3ccc(OC(F)(F)F)cc3)c(Cl)c(O)c21 | 11.7 | 2.76 | 4.36 | 0.677 | 1.8 | 5.2 µM | 2.87 | 1.45 | 3.16 | 1.49 | 1.97 | 2.6 | 1.79 | 2.7 | 0.972 | 2.29 | 5.58 |  |  |
| CCOC(=O)c1c(SCC#N)n(-c2ccccc2)c(=S)n(-c2ccccc2)c1=O | > 100 | > 100 | > 100 | > 100 | > 100 | > 100 µM | > 100 | > 100 | > 100 | > 100 | > 100 | > 100 | 90.3 | > 100 | > 100 | > 100 | > 100 |  |  |
| Cn1c2nc(=Nc3ccc(Cl)cc3)n3ccc4ccccc4c3c2c(=O)n1-c1ccccc1 |  | > 100 | > 100 | > 100 | > 100 | > 100 µM | > 100 | > 100 | > 100 | > 100 | > 100 | > 100 | > 100 | > 100 | > 100 | > 100 | > 100 |  |  |
| CCOC(=O)C1C(=O)CC(C)(O)C(C(=O)OCC)C1c1ccc(O)c(OC)c1 (stereo not drawn) | > 100 | > 100 | > 100 | > 100 | > 100 | > 100 µM | > 100 | > 100 | > 100 | > 100 | > 100 | > 100 | > 100 | > 100 | > 100 | > 100 | > 100 |  |  |
| COc1ccc(OC)c2c1C(=O)C(Cl)=C(Cl)C2=O | 56.4 | 10.9 | > 100 | 5.18 | 10.4 | 4.19 µM | 4.68 | 7.85 | 29.6 | 27 | 12.8 | > 77.4 | 29.1 | 3.6 | 8.09 | 6.9 | 6.66 |  |  |
| N#C/C(=C\N1CCNC1=S)C(=O)c1ccc2ccccc2c1 | > 100 | > 100 | > 100 | > 100 | > 100 | > 100 µM | > 100 | > 100 | > 100 | > 100 | > 100 | > 100 | > 100 | > 100 | > 100 | > 100 | > 100 |  |  |
| OC(CCN1CCN(CCOC(c2ccc(F)cc2)c2ccc(F)cc2)CC1)c1ccccc1 (stereo not drawn) | 31 | 25.8 | 26.4 | 28.2 | 35.6 | 28.5 µM | 28.1 | 31.4 | 27.8 | 31.2 | 35.7 | 30.7 | 27.5 | 57.4 | 28.7 | 28.2 | 11.2 |  |  |
| C[C@@H]1O[C@@H]2OCC[C@@H]2C2=C1C(=O)c1ccccc1C2=O | 41.9 | 28.6 | 32.7 | 5.65 | 2.81 | 3.35 µM | 20.3 | 10.2 | 4.3 | 16.9 | 51.5 | 36.5 | 41.9 | 15.2 | 31.9 | 17.4 | 22.8 |  |  |
| CCCC/C=C1\CCC(CN2CCOCC2)C1=O (stereo not drawn) | 46.2 | 8.23 | 5.82 | 3.14 | 4.93 | 22.7 µM | 2.17 | 19.3 | 32.9 | 36.3 | 7.97 | 29.6 | 20.7 | 5.13 | 31.3 | 16 | 11.6 |  |  |
| COC(=O)c1ccc(/C=N/c2cc(C)nn2-c2ccccc2)cc1 | > 100 | > 100 | > 100 | > 100 | > 100 | > 100 µM | > 100 | 38.7 | > 100 | > 100 | > 100 | > 100 | 96.8 | > 100 | 58 | > 100 | > 100 |  |  |
| COC(=O)c1ccc(NCc2cc(O)c3ccccc3c2O)cc1 | 23.4 | 25.7 | 6.97 | 11.5 | 21.3 | 3.98 µM | 43.8 | 28.2 | 50.9 | > 73.1 | 18.3 | > 81.8 | 56.6 | 32.3 | 40.7 | 10.3 | 26.7 |  |  |
| CCCCC/C=C1\CCC(CN2CCOCC2)C1=O (stereo not drawn) | 39.4 | 30.1 | 7 | 10.5 | 7.73 | 25.4 µM | 5.18 | 12.2 | 35.9 | 34 | 21.2 | 32.4 | 33.5 | 11.5 | 9.95 | 28.5 | 25.9 |  |  |
| COC(=O)c1ccccc1C1CN=NC12Cc1c(C)c3c(c(C)c1C2=O)CCC3 (stereo not drawn) | > 100 | > 100 | > 100 | > 100 | > 100 | > 100 µM | > 100 | > 100 | > 100 | > 100 | > 100 | > 100 | > 100 | > 100 | > 100 | > 100 | > 100 |  |  |
| COC(=O)C1=C(C(=O)OC)C2(/N=C(\Nc3ccccc3)c3ccccc3)N(c3ccc(OC)cc3)CC(c3ccccc3)N2O1 (stereo not drawn) | > 100 | > 100 | > 100 | > 100 | > 100 | > 100 µM | > 100 | > 100 | > 100 | > 100 | > 100 | > 100 | 96.7 | > 100 | > 100 | > 100 | > 100 |  |  |
| COC(=O)c1c(C)cccc1C1CN=NC12Cc1c(C)cccc1C2=O (stereo not drawn) | > 100 | > 100 | > 100 | > 100 | > 100 | > 100 µM | 91.7 | > 100 | > 100 | > 100 | > 100 | > 100 | > 100 | > 100 | > 100 | > 100 | > 100 |  |  |
| S=c1scc(-c2ccc(Cl)cc2)n1OC1CCCC1 | > 100 | 90.4 | > 100 | > 100 | 81.6 | > 100 µM | 54.2 | 74.9 | > 100 | > 100 | > 100 | > 100 | > 100 | > 100 | > 100 | > 100 | > 100 |  |  |
| CNNC1=NS(=O)(=O)c2cc(C(=O)OC)c(Cl)cc2S1 | > 10 | > 10 | > 10 | > 10 | > 10 | > 10 µM | > 10 | > 10 | > 10 | > 10 | > 10 | > 10 | > 10 | > 10 | > 10 | > 10 |  |  |  |
| O=C(CCNC(=O)OCc1ccccc1)OCCCNC(=O)OCc1ccccc1 | > 100 | > 100 | > 100 | > 100 | > 100 | > 100 µM | > 100 | > 100 | > 100 | > 100 | > 100 | > 100 | > 100 | > 100 | > 100 | > 100 | > 100 |  |  |
| COc1cc(CSc2ccc(O)cc2)cc(O)c1O | > 100 | > 100 | > 100 | > 100 | 33.8 | > 100 µM | 38.3 | 67.6 | 53.4 | 95.9 | > 100 | > 100 | > 100 | > 100 | 53.4 | 61.2 | > 100 |  |  |
| Cc1ccc2c(c1)C(=O)C1(C2)Cc2ccc(C)cc2C1=O | > 100 | > 100 | > 100 | > 100 | > 100 | > 100 µM | > 100 | > 100 | > 100 | > 100 |  | > 100 | > 100 | > 100 | > 100 |  | > 100 |  |  |
| CC(=O)OCC1OC(Sc2nc(-c3ccc(C)cc3)c(C#N)c(=O)n2C2OC(COC(C)=O)C(OC(C)=O)C(OC(C)=O)C2OC(C)=O)C(OC(C)=O)C(OC(C)=O)C1OC(C)=O (stereo not drawn) | > 100 | > 100 | > 100 | > 100 | > 100 | > 100 µM and 64.6 µM | > 100 | > 100 | > 100 | > 100 | > 100 | > 100 | > 100 | > 100 | > 100 | > 100 | > 100 | > 100 | > 100 µM and 10.1 µM |
| O=C(/C=C/c1ccc(O)c(O)c1)Oc1ccccc1 | 59 | 41.7 | > 100 | 21 | 64.9 | > 81 µM | 1.95 | 47.6 | > 96.3 | 32 | > 100 | > 80.9 | 44.2 | > 100 | 65.2 | 35.9 | 30.5 |  |  |
| COc1ccc(C(F)(F)F)cc1NC(=O)O/N=C(/Cl)C(C)C | 40 | 26.7 | 3.99 | 13.2 | > 55.9 | 32.4 µM | 4.57 | 34.8 | 39.1 | 53.7 | 48.5 | 42.6 | 44.4 | > 21.4 | 45.5 | 36.7 | 33.3 |  |  |
| COC(=O)C1=C(O)C(C(=O)OC)[C@@]2(O)[C@@H](C(=O)OC)C(c3ccc(OC(=O)/C(=C/c4ccccc4)c4ccccc4)cc3)C[C@@H]1[C@@H]2C(=O)OC (stereo partly drawn) | > 100 | > 100 | > 100 | 22.5 | > 100 | 87.7 µM | > 100 | > 100 | > 100 | > 100 | > 100 | > 100 | 35.6 | > 100 | > 100 | 17.2 | 40.4 |  |  |
| S=C(NNC1=NCCCCN1)Nc1ccccc1 | > 100 | > 100 | > 100 | 94.7 | > 100 | > 100 µM | > 100 | > 100 | > 100 | > 100 | > 100 | > 100 | > 100 |  | > 100 | > 100 | > 100 |  |  |
| CCN(CC)CC1CCCCN1CC(=O)N1c2ccc(Br)cc2C(=O)Nc2cccnc21 (stereo not drawn) | > 100 | > 100 | > 100 | > 100 | > 100 | > 100 µM | > 100 | > 100 | > 100 | > 100 | > 100 | > 100 | 59.4 |  | > 100 | > 100 | 44.8 |  |  |
